Source: US20210261553A1, “FUSED TETRAZOLES AS LRRK2 INHIBITORS” (E-SCAPE Bio, Inc., priority 2018, published 2021)

Key:
[1] = molecular target: T1, Recombinant wild type LRRK2 protein (Homo sapiens, UniProt Q5S007); assay: LRRK2 kinase activity assay (LanthaScreen TR-FRET), wild type; assay type: biochemical; conditions: 400 nM LRRKtide, 25 μM ATP, 60 min at room temperature; read-out: LRRK2 WT IC50
T1 construct: purchased Life Technologies PR8604B
Experimental: (§1) LRRK2 kinase activity was measured using a LanthaScreen™ Kinase Activity Assay from ThermoFisher Scientific. Recombinant wild type or G2019S-LRRK2 protein (Life Technologies, PR8604B or PV4881, respectively), was incubated with a fluorescein-labeled peptide substrate called LRRKtide that is based upon ezrin/radixin/moesin (ERM) (Life Technologies, PV4901) in the presence of ATP and serially diluted compound. After an incubation period of 1 hr, the phosphotransferase activity was stopped and a terbium-labelled anti-pERM antibody (Life Technologies, PV4899) was added to detect the phosphorylation of LRRKtide by measuring the time resolved-Forster resonant energy transfer (TR-FRET) signal from the terbium label on the antibody to the fluorescein tag on LRRKtide, expressed as the 520 nm/495 nm emission ratio. Compound-dependent inhibition of the TR-FRET signal was used to generate a concentration-response curve for IC50 determination.
(§2) The assay was carried out under the following protocol conditions: 1 mM compound in DMSO was serially diluted 1:3, 11 points in DMSO with a Biomek FX and 0.1 μL of the diluted compound was subsequently stamped into the assay plate (384-well format Lumitrac 200, Greiner, 781075) with an Echo Labcyte such that the final compound concentration in the assay was 10 μM to […]. Subsequently, 5 μL of 2× kinase solution (2.9 nM final concentration) was added to the assay plate in assay buffer composed of 50 mM Tris pH 8.5 (Sigma, T6791), 5 mM MgCl2 (Fluka, 63020), 1 mM EGTA (Sigma, E3889), 0.01% BRU-35 (Sigma, P1254) and 2 mM DTT. The reaction was started by addition of 2×ATP/LRRKtide solution in assay buffer such that the final concentration was 400 nM LRRKtide and 25 μM ATP. After 60 min incubation at room temperature, the reaction was stopped by addition of […] containing a final concentration of 2 nM anti-pERM antibody and […]. After a 30 min incubation at RT, the TR-FRET signal was measured on a Wallac 2104 EnVision® multilabel reader at an excitation wavelength of 340 nm and reading emission at 520 nm and 495 nm. The ratio of the 520 nm and 495 nm emission was used to analyze the data.

[2] = molecular target: T2, Recombinant G2019S-LRRK2 protein (Homo sapiens, UniProt Q5S007, G2019S); assay: LRRK2 kinase activity assay (LanthaScreen TR-FRET), G2019S mutant; assay type: biochemical; conditions: 400 nM LRRKtide, 25 μM ATP, 60 min at room temperature
T2 construct: purchased Life Technologies PV4881
T2 sequence (Q5S007 970-2527 G2019S limits assumed): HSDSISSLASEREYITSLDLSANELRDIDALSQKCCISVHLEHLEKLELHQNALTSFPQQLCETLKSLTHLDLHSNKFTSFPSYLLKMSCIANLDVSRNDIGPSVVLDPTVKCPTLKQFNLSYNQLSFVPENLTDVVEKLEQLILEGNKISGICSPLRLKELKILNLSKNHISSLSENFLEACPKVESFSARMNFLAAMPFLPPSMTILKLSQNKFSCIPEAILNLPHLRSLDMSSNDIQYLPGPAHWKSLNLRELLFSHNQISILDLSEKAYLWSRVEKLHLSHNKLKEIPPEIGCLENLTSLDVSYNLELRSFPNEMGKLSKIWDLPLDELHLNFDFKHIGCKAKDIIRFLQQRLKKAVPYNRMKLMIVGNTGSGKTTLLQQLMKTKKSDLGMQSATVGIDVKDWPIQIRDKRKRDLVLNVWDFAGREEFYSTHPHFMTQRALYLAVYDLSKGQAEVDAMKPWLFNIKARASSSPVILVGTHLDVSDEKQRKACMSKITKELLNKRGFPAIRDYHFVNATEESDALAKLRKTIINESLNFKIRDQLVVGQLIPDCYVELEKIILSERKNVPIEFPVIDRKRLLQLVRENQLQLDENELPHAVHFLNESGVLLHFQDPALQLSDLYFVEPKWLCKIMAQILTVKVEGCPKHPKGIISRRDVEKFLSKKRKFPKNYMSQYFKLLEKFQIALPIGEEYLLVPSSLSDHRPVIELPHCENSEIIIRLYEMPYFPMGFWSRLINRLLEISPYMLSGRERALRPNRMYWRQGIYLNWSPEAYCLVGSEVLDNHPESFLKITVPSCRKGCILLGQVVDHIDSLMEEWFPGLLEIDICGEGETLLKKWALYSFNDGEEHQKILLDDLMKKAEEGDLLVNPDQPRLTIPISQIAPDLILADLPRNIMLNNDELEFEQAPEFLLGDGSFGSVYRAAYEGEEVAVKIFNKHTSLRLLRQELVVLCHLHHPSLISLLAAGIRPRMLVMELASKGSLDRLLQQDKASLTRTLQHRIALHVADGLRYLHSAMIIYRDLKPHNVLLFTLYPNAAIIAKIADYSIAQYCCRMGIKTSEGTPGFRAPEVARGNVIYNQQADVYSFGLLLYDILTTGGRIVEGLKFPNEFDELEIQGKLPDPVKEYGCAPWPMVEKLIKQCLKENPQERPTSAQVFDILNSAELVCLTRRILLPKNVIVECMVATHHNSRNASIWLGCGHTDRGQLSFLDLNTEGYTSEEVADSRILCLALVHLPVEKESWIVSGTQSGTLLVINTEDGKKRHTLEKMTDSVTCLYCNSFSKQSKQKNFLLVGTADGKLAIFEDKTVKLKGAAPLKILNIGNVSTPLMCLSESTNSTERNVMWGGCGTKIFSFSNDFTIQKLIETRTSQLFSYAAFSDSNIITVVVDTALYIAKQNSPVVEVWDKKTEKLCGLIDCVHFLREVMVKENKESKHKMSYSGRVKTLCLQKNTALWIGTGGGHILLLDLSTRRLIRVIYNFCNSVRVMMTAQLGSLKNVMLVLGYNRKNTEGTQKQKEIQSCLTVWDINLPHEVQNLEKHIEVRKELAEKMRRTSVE
Experimental: as §1, §2

T1 sequence (Q5S007 whole entry): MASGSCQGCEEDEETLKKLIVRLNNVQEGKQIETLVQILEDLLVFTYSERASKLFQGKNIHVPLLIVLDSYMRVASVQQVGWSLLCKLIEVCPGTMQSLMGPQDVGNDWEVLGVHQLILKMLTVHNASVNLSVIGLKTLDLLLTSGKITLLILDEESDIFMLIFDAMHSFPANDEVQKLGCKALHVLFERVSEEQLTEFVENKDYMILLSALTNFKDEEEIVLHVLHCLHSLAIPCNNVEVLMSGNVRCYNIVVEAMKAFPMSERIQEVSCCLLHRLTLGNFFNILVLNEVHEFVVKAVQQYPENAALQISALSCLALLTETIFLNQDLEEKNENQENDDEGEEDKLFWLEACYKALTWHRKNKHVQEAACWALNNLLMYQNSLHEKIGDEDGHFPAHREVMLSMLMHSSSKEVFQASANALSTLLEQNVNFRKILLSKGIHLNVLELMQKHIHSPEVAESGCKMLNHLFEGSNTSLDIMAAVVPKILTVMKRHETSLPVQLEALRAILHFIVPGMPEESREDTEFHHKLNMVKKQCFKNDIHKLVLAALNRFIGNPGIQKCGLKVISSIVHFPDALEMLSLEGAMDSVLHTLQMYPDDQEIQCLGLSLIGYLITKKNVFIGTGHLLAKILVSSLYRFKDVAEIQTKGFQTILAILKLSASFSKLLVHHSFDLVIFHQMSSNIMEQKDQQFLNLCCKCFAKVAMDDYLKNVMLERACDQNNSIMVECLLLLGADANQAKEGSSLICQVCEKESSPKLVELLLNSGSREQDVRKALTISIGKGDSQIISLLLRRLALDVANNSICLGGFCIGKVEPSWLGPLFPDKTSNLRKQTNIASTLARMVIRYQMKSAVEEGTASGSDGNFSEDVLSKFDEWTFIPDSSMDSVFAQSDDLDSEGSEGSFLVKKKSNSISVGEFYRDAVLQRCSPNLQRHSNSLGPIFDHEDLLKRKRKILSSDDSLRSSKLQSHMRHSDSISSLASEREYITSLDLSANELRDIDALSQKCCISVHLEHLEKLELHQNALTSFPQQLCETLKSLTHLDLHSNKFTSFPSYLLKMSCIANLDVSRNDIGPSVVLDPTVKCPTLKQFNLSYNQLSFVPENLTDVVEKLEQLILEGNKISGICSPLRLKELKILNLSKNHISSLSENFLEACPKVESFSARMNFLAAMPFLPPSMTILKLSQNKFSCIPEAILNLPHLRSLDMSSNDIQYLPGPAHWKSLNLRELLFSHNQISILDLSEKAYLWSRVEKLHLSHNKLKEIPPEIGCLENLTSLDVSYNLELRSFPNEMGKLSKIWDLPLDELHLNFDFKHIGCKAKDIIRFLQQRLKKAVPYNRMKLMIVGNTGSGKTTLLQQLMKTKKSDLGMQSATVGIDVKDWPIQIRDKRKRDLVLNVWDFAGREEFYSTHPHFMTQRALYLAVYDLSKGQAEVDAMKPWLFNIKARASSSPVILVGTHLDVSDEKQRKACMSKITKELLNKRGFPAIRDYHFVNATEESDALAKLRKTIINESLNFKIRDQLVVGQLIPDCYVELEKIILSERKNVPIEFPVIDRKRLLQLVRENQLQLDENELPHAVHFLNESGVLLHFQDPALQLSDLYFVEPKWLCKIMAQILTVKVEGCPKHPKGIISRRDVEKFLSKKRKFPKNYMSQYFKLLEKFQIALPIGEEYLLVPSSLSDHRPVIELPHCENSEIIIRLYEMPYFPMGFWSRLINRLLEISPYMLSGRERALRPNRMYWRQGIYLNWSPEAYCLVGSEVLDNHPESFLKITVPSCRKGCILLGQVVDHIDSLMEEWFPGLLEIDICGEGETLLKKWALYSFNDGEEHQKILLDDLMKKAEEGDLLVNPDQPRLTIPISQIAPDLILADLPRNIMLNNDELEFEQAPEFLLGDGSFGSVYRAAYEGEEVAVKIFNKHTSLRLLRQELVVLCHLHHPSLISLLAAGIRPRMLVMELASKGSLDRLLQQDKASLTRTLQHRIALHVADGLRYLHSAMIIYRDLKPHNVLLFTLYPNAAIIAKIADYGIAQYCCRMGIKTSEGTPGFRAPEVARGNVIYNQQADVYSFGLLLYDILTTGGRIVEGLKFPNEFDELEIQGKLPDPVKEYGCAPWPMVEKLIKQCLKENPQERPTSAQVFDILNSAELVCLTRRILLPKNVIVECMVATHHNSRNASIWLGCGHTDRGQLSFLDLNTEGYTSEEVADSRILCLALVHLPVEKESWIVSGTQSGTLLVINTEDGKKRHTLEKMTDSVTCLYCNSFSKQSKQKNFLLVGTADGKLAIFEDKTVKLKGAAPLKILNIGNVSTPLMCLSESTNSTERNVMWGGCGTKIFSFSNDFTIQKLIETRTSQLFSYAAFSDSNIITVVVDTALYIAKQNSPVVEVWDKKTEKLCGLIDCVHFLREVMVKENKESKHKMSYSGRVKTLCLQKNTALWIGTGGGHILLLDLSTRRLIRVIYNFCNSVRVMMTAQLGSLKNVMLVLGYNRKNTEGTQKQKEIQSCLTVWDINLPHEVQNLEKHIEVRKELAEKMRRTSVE

SMILES	IC50 [1]	IC50 [2]
CC1=C(C(=O)Nc2ccc3n[nH]c(NC(=O)Cc4ccc(N(C)C)cc4)c3c2)Cn2nnnc2N1C [Example 52, N-(3-(2-(4-(Dimethylamino)phenyl)acetamido)-2H-indazol-5-yl)-4,5-dimethyl-4,7-dihydrotetrazolo[1,5-a]pyrimidine-6-carboxamide]	1 to 10 µM	0.1 to 1 µM
CC1=C(C(=O)Nc2ccc3c(N)nccc3c2)[C@@H](C)n2nnnc2N1C [Example 42, (R)—N-(1-Aminoisoquinolin-6-yl)-4,5,7-trimethyl-4,7-dihydrotetrazolo[1,5-a]pyrimidine-6-carboxamide]	0.1 to 1 µM	≤ 0.1 µM
CC1=C(C(=O)Nc2ccc3[nH]c(=O)oc3c2)Cn2nnnc2N1C [Example 30, 4,5-dimethyl-N-(2-oxo-2,3-dihydrobenzo[d]oxazol-6-yl)-4,7-dihydrotetrazolo[1,5-a]pyrimidine-6-carboxamide]	> 10 µM	1 to 10 µM
CC1=C(C(=O)Nc2ccc3[nH]nc(Br)c3c2)Cn2nnnc2N1C [Example 10, N-(3-Bromo-1H-indazol-5-yl)-4,5-dimethyl-4,7-dihydrotetrazolo[1,5-a]pyrimidine-6-carboxamide]	≤ 0.1 µM	≤ 0.1 µM
CC1=C(C(=O)Nc2ccc3[nH]nc(-c4ccnc(N5CCOCC5)c4)c3c2)[C@H](C)n2nnnc2N1C (single isomer, unassigned) [Example 24b]	≤ 0.1 µM	≤ 0.1 µM
COc1cc2n[nH]cc2cc1NC(=O)C1=C(C)N(C)c2nnnn2C1 [Example 17, N-(6-methoxy-2H-indazol-5-yl)-4,5-dimethyl-4,7-dihydrotetrazolo[1,5-a]pyrimidine-6-carboxamide]	> 10 µM	1 to 10 µM
CC1=C(C(=O)Nc2cc3c[nH]nc3cc2N)C(C)n2nnnc2N1C (centres unmarked) [Example 25, N-(6-amino-2H-indazol-5-yl)-4,5,7-trimethyl-4,7-dihydrotetrazolo[1,5-a]pyrimidine-6-carboxamide]	1 to 10 µM	1 to 10 µM
CC1=C(C(=O)Nc2ccc3[nH]nc(-c4ccc(S(N)(=O)=O)cc4)c3c2)Cn2nnnc2N1C [Example 11, 4,5-Dimethyl-N-(3-(4-sulfamoylphenyl)-1H-indazol-5-yl)-4,7-dihydrotetrazolo[1,5-a]pyrimidine-6-carboxamide]	≤ 0.1 µM	≤ 0.1 µM
CC1=C(C(=O)Nc2ccc3[nH]nc(-c4ccnc(N5CCOCC5)c4)c3c2)[C@@H](C)n2nnnc2N1C (single isomer, unassigned) [Example 24a]	≤ 0.1 µM	≤ 0.1 µM
CC1=C(C(=O)Nc2cc3c[nH]nc3cc2F)Cn2nnnc2N1C [Example 19, N-(6-fluoro-2H-indazol-5-yl)-4,5-dimethyl-4,7-dihydrotetrazolo[1,5-a]pyrimidine-6-carboxamide]	0.1 to 1 µM	0.1 to 1 µM
CC1=C(C(=O)Nc2ccc3cn[nH]c3c2)Cn2nnnc2N1C [Example 3, N-(1H-indazol-6-yl)-4,5-dimethyl-4H,7H-[1,2,3,4]tetrazolo[1,5-a]pyrimidine-6-carboxamide]	1 to 10 µM	1 to 10 µM
CCC1C(C(=O)Nc2ccc3[nH]ncc3c2)=C(C)N(C)c2nnnn21 (single isomer, unassigned) [Example 8b]	0.1 to 1 µM	≤ 0.1 µM
CC1=C(C(=O)Nc2cnc3n[nH]cc3c2)C(C)n2nnnc2N1C (centres unmarked) [Example 16, 4,5,7-trimethyl-N-(2H-pyrazolo[3,4-b]pyridin-5-yl)-4,7-dihydrotetrazolo[1,5-a]pyrimidine-6-carboxamide]	1 to 10 µM	0.1 to 1 µM
CC1=C(C(=O)Nc2ccc3[nH]ncc3c2)Cn2nnnc2N1c1ccccc1 [Example 13, N-(1H-indazol-5-yl)-5-methyl-4-phenyl-4,7-dihydrotetrazolo[1,5-a]pyrimidine-6-carboxamide]	≤ 0.1 µM	≤ 0.1 µM
CC1=C(C(=S)Nc2ccc3[nH]ncc3c2)Cn2nnnc2N1C [Example 15, N-(1H-indazol-5-yl)-4,5-dimethyl-4,7-dihydrotetrazolo[1,5-a]pyrimidine-6-carbothioamide]	0.1 to 1 µM	≤ 0.1 µM
CCC1=C(C(=O)Nc2ccc3[nH]ncc3c2)Cn2nnnc2N1C [Example 5, 5-Ethyl-N-(1H-indazol-5-yl)-4-methyl-4H,7H-[1,2,3,4]tetrazolo[1,5-a]pyrimidine-6-carboxamide]	0.1 to 1 µM	0.1 to 1 µM
